Target: human α7 nAChR (Homo sapiens (Human), UniProt P36544)
Experiment: Automated patch-clamp electrophysiology functional assay (Assay A)
Assay type: cell-based
Settings: IonFlux HT whole-cell population patch, HEK cells expressing human α7/RIC-3, 40 μM acetylcholine
Procedure, shortened: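 Whole-cell population patch clamp on HEK cells stably co-expressing human α7 and RIC-3, held at −60 mV, room temperature. Compounds tested at three ascending concentrations per recording with or without 40 μM acetylcholine; currents normalized to the 40 μM acetylcholine-evoked reference response to give agonist and potentiation EC50.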

human α7 nAChR, sequence (P36544 23-502): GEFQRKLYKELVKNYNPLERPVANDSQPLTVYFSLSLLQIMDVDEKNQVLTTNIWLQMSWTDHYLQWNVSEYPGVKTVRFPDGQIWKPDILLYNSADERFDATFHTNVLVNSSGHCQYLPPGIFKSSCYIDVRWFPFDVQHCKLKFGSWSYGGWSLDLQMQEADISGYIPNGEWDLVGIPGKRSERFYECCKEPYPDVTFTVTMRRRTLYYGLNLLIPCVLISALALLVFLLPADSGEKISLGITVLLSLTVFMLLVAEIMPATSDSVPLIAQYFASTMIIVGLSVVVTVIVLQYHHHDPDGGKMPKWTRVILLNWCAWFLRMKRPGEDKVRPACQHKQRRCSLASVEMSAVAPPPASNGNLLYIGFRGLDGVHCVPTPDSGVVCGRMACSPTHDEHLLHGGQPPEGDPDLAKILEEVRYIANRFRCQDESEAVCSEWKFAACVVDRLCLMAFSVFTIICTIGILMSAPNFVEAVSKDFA

EC50 (electrophysiology EC50 values) [nM]	EC50 (potency class) [nM]	SMILES
1100	500 to 5000	O=C(NC1(c2ccc(F)cc2)CC1)C1C2COc3ccc(F)cc3C21 (stereo not drawn) [Example A9, exo-6-fluoro-N-[1-(4-fluorophenyl)cyclopropyl]-1,1a,2,7b-tetrahydrocyclopropa[c][1]benzopyran-1-carboxamide]
480	100 to 500	CCOc1ccc([C@H](COC)NC(=O)C2C3Oc4c(Cl)cccc4C32)cc1 (stereo partly drawn) [Example B7, exo-3-chloro-N-[(1R)-1-(4-ethoxyphenyl)-2-methoxyethyl]-1a,6b-dihydro-1H-cyclopropa[b][1]benzofuran-1-carboxamide]
810	500 to 5000	O=C(NCc1cc(Cl)ccc1F)C1C2Oc3ccc(F)cc3C21 (stereo not drawn) [Example C14, exo-N-[(5-chloro-2-fluorophenyl)methyl]-5-fluoro-1a,6b-dihydro-1H-cyclopropa[b][1]benzofuran-1-carboxamide]
	500 to 5000	COc1cc([C@H](CF)NC(=O)C2C3COc4ccc(F)cc4C32)ccn1 (stereo partly drawn) [Example A16, exo-6-fluoro-N-[(1R)-2-fluoro-1-(2-methoxypyridin-4-yl)ethyl]-1,1a,2,7b-tetrahydrocyclopropa[c][1]benzopyran-1-carboxamide]
	100 to 500	CCOc1ccc([C@H](COC)NC(=O)C2C3Oc4c(Cl)cccc4C32)cc1 (stereo partly drawn) [Example B6, exo-3-chloro-N-[(1R)-1-(4-ethoxyphenyl)-2-methoxyethyl]-1a,6b-dihydro-1H-cyclopropa[b][1]benzofuran-1-carboxamide]
3500	500 to 5000	COC(=O)[C@@H](NC(=O)C1C2Oc3ccc(F)cc3C21)c1cccc(F)c1 (mixture of isomers) [Example C13, methyl 2-(3-fluorophenyl)-2-[(exo-5-fluoro-1a,6b-dihydro-1H-cyclopropa[b][1]benzofuran-1-carbonyl)amino]acetate]
940	500 to 5000	CCOc1ccc([C@H](COC)NC(=O)C2C3Oc4ccc(F)cc4C32)cc1 (stereo partly drawn) [Example B4, exo-N-[(1R)-1-(4-ethoxyphenyl)-2-methoxyethyl]-5-fluoro-1a,6b-dihydro-1H-cyclopropa[b][1]benzofuran-1-carboxamide]
	5000 to 50000	COc1cc2c(cc1OC)[C@@H](NC(=O)C1C3Oc4ccc(F)cc4C31)COC2 (stereo partly drawn) [Example C4, exo-N-[(4R)-6,7-dimethoxy-3,4-dihydro-1H-2-benzopyran-4-yl]-5-fluoro-1a,6b-dihydro-11H-cyclopropa[b][1]benzofuran-1-carboxamide]
1500	500 to 5000	CCOc1ccc([C@H](COC)NC(=O)C2C3Oc4ccccc4C32)cc1 (stereo partly drawn) [Example B2, exo-N-[(1R)-1-(4-ethoxyphenyl)-2-methoxyethyl]-1a,6b-dihydro-1H-cyclopropa[b][1]benzofuran-1-carboxamide]
1100	500 to 5000	COc1cc([C@@H](NC(=O)C2C3COc4ccc(F)cc4C32)C(F)(F)F)ccn1 (stereo partly drawn) [Example 4, exo-6-Fluoro-N-[(1R)-2,2,2-trifluoro-1-(2-methoxypyridin-4-yl)ethyl]-1,1a,2,7b-tetrahydrocyclopropa[c][1]benzopyran-1-carboxamide]
2500	500 to 5000	CC(C)(NC(=O)C1C2COc3ccc(F)cc3C21)c1cccc(Cl)c1 (stereo not drawn) [Example A18, exo-N-[2-(3-chlorophenyl)propan-2-yl]-6-fluoro-1,1a,2,7b-tetrahydrocyclopropa[c][1]benzopyran-1-carboxamide]
2800	500 to 5000	O=C(N[C@@H](CCO)c1ccc(F)cc1)C1C2Oc3ccc(F)cc3C21 (stereo partly drawn) [Example C30, exo-5-fluoro-N-[(1S)-1-(4-fluorophenyl)-3-hydroxypropyl]-1a,6b-dihydro-1H-cyclopropa[b][1]benzofuran-1-carboxamide]
1000	500 to 5000	CCOc1ccc([C@H](COC)NC(=O)C2C3Oc4cccc(Br)c4C32)cc1 (stereo partly drawn) [Example B18, exo-6-bromo-N-[(1R)-1-(4-ethoxyphenyl)-2-methoxyethyl]-1a,6b-dihydro-1H-cyclopropa[b][1]benzofuran-1-carboxamide]
5600	5000 to 50000	CCOc1ccc(C2(NC(=O)C3C4Oc5ccc(F)cc5C43)CCC2)cn1 (stereo not drawn) [Example C3, exo-N-[1-(6-ethoxypyridin-3-yl)cyclobutyl]-5-fluoro-1a,6b-dihydro-1H-cyclopropa[b][1]benzofuran-1-carboxamide]
6600	5000 to 50000	O=C(NCc1nc(Cc2ccccc2)no1)C1C2Oc3ccc(F)cc3C21 (stereo not drawn) [Example C42, exo-N-[(3-benzyl-1,2,4-oxadiazol-5-yl)methyl]-5-fluoro-1a,6b-dihydro-1H-cyclopropa[b][1]benzofuran-1-carboxamide]
1900	500 to 5000	CC(NC(=O)C1C2Oc3ccc(F)cc3C21)c1ccno1 (stereo not drawn) [Example C43, exo-5-fluoro-N-[1-(1,2-oxazol-5-yl)ethyl]-1a,6b-dihydro-1H-cyclopropa[b][1]benzofuran-1-carboxamide]
1800	500 to 5000	COC(=O)C(NC(=O)C1C2Oc3ccc(F)cc3C21)c1cccc(Cl)c1 (stereo not drawn) [Example C29, methyl 2-(3-chlorophenyl)-2-[(exo-5-fluoro-1a,6b-dihydro-1H-cyclopropa[b][1]benzofuran-1-carbonyl)amino]acetate]
760	500 to 5000	CCOc1ccc([C@H](COC)NC(=O)C2C3Cc4ccccc4C32)cc1 (single isomer, unassigned) [Example 1]
1800	500 to 5000	Cc1ccccc1CNC(=O)C1C2Oc3ccc(F)cc3C21 (stereo not drawn) [Example C31, exo-5-fluoro-N-[(2-methylphenyl)methyl]-1a,6b-dihydro-1H-cyclopropa[b][1]benzofuran-1-carboxamide]
620	500 to 5000	CCOc1ccc(C2(NC(=O)C3C4COc5ccccc5C43)CCC2)cn1 (stereo not drawn) [Example A11, exo-N-[1-(6-ethoxypyridin-3-yl)cyclobutyl]-1,1a,2,7b-tetrahydrocyclopropa[c][1]benzopyran-1-carboxamide]
390	100 to 500	CCOc1ccc([C@H](COC)NC(=O)C2C3Oc4c(Br)cccc4C32)cc1 (stereo partly drawn) [Example B9, exo-3-bromo-N-[(1R)-1-(4-ethoxyphenyl)-2-methoxyethyl]-1a,6b-dihydro-1H-cyclopropa[b][1]benzofuran-1-carboxamide]

SMILES	EC50 (electrophysiology EC50 values) [nM]	EC50 (potency class) [nM]
O=C(NC1(c2ccc(F)cc2)COC1)C1C2COc3ccc(F)cc3C21 (stereo not drawn) [Example A2, exo-6-fluoro-N-[3-(4-fluorophenyl)oxetan-3-yl]-1,1a,2,7b-tetrahydrocyclopropa[c][1]benzopyran-1-carboxamide]	1200	500 to 5000
O=C(NC1(c2ccc(F)cc2)COC1)C1C2COc3ccccc3C21 (stereo not drawn) [Example A1, exo-N-[3-(4-fluorophenyl)oxetan-3-yl]-1,1a,2,7b-tetrahydrocyclopropa[c][1]benzopyran-1-carboxamide]	1500	500 to 5000
CCC(NC(=O)C1C2Oc3ccc(F)cc3C21)c1ccccn1 (stereo not drawn) [Example C16, 2-{1-[(exo-5-fluoro-1a,6b-dihydro-1H-cyclopropa[b][1]benzofuran-1-carbonyl)amino]propyl}pyridine]		500 to 5000
O=C(NCc1cccc(-c2ncco2)c1)C1C2Oc3ccc(F)cc3C21 (stereo not drawn) [Example C35, exo-5-fluoro-N-{[3-(1,3-oxazol-2-yl)phenyl]methyl}-1a,6b-dihydro-1H-cyclopropa[b][1]benzofuran-1-carboxamide]	2400	500 to 5000
